For experiment [1], the system named is NIH/3T3 cells transfected with control vector (MOCK). Description: NIH/3T3 mock cell proliferation assay (CTG, counter assay). The experiment is classed as cell-based. The settings on record: Mus musculus, NIH3T3; 72-hr incubation, CellTiter Glo; counter assay for general toxicity. In a few lines: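 Control-vector NIH/3T3 cells, 30,000/well in DMEM with 10% FBS, exposed 72 h at 37 °C to compound (9 points, 3-fold from 30 μM, 0.3% DMSO). CellTiter-Glo luminescence normalized to survival %; IC50, pIC50 and Hill slope from concentration-response fit.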

For experiment [2], the system named is NIH/3T3 cells overexpressing FGFR3 WT-TACC3 fusion protein. Description: NIH/3T3 FGFR3 WT-TACC3 cellular phospho-ERK assay (in vitro PD assay). Format: cell-based. Conditions: Mus musculus, NIH3T3; 1-hr incubation, AlphaLISA SureFire Ultra p-ERK1/2; read-out: NIH/3T3 FGFR3 WT-TACC3 pERK (IC50). On the procedure:
NIH/3T3 FGFR3 WT-TACC3 Cellular Phospho-ERK Assay (In Vitro PD Assay)
(§1) 50 uL of cell suspension (NIH/3T3 cells overexpressing FGFR3 WT-TACC3 fusion protein) (total 10,000 cells per well in growth medium (DMEM containing 1% Glutamax, 10% FBS and 1% Pen/Strep)) was seeded in a 384-well plate. After overnight incubation at 37° C. and 5% CO2, 5.5 μL of growth medium containing 10× testing compound was added into cell cultures (10 dose points with 4× serial dilution, starting with 10 μM, 0.1% DMSO final). After 1-hr incubation at 37° C. and 5% CO2, the medium was depleted and AlphaLISA SureFire Ultra p-ERK1/2 (Thr202/Tyr204) Assay Kit (from PerkinElmer) was applied for phospho-ERK level detection according to the kit instructions. The RFUs (relative fluorescence units were measured on EnVision microplate reader (ex. 680 nm, em. 615 nm) and concentration-response curve was plotted using Prism to calculate IC50 (M), pIC50 (−log IC50) and HillSlope value.

For experiment [3], the system named is NIH/3T3 cells overexpressing FGFR3 V555M-TACC3 fusion protein. Description: NIH/3T3 FGFR3 V555M-TACC3 cellular phospho-ERK assay (in vitro PD assay). Format: cell-based. The settings on record: Mus musculus, NIH3T3; 1-hr incubation, AlphaLISA SureFire Ultra p-ERK1/2; read-out: NIH/3T3 FGFR3 V555M-TACC3 pERK (IC50). On the procedure: NIH/3T3 FGFR3 V555M-TACC3 Cellular Phospho-ERK Assay (In Vitro PD Assay)
as §1, with “μL” for “uL”, “V555M-TACC3” for “WT-TACC3”

Experiment [4] addresses T1, NIH/3T3 cells overexpressing FGFR3 V555M-TACC3 fusion protein (Homo sapiens, UniProt P22607, V555M, cells depend on it).
T1 construct: NIH/3T3 FGFR3 V555M-TACC3 CTG (IC50); other: 72-hr incubation, CellTiter Glo; fused on or other part: C-terminal coiled-coil part of TACC3 (part of the key, as a fusion known from patients); Q9Y6A5 (Transforming acidic coiled-coil-containing protein 3)
Description: NIH/3T3 FGFR3 V555M-TACC3 cell proliferation assay (CTG). The settings on record: 72-hr incubation, CellTiter Glo; read-out: NIH/3T3 FGFR3 V555M-TACC3 CTG (IC50). Format: cell-based. Here is the method:
NIH/3T3 FGFR3 V555M-TACC3 Cell Proliferation Assay
(§2) In day 1, 90 μL of cell suspension (NIH/3T3 cells overexpressing FGFR3 V555M-TACC3 fusion protein) (total 30,000 cells per well in growth medium (DMEM containing 1% Glutamax, 10% FBS and 1% Pen/Strep)) was seeded in a 96-well plate and then incubated overnight at 37° C. and 5% CO2. In day 2, 10 μL of growth medium containing 10-fold stock solution of testing compound was added into cell cultures (9 dose points with 4× serial dilution, starting with 10 μM, 0.1% DMSO final). After 72-hr incubation at 37° C. and 5% CO2, in day 5 a volume of 50 μL CellTiter Glo (CTG) reagent was added into cell-containing 96-well plate and the plate was incubated at room temperature for 10 minutes before RLUs (relative light unit) were measured on a microplate reader with luminescence detection module. The RLU value was normalized to survival % and concentration-response curve was plotted using Prism to calculate IC50 (M), pIC50 (−log IC50) and HillSlope value.

Experiment [5] has as its target T2, human FGFR3 wild type enzyme (cytoplasmic domain) (Homo sapiens, UniProt P22607).
T2 construct: human FGFR3 wild type enzyme (cytoplasmic domain, from Cama Biosciences); purchased Carna Biosciences
Description: FGFR3 wild type mobility shift assay (enzymatic assay, Caliper). The experiment is classed as biochemical. Conditions: 75 μM ATP, 50 minutes at 30° C. In a few lines:
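Cytoplasmic-domain FGFR3 (0.04 ng/μL) reacted with 75 μM ATP and 1 μM FL-peptide 30 in HEPES pH 7.4/MgCl2/Brij35/DTT buffer, 1% DMSO final. Incubation 50 min at 30° C, EDTA stop; substrate phosphorylation read by microfluidic mobility shift.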

Experiment [6] concerns the target T3, human FGFR3 V555M enzyme (cytoplasmic domain carrying V555M mutation) (Homo sapiens, UniProt P22607, V555M).
T3 construct: cytoplasmic domain carrying V555M mutation, from Carna Biosciences; purchased Carna Biosciences
Briefly: FGFR3 V555M mobility shift assay (enzymatic assay, Caliper). The experiment is classed as biochemical. The settings on record: 30 μM ATP, 45 minutes at 30° C. A digest of the protocol: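 Cytoplasmic-domain human FGFR3 V555M (0.04 ng/μL) reacted with 30 μM ATP and 1 μM FL-peptide 30 in HEPES pH 7.4, MgCl2, Brij35, DTT, 1% DMSO final. Incubation 45 min at 30 °C, stopped with EDTA. Substrate/product separated and read by mobility shift on a Caliper EZ reader II.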

For experiment [7], the target named is T4, NIH/3T3 cells overexpressing FGFR3 WT-TACC3 fusion protein (Homo sapiens, UniProt P22607).
T4 construct: NIH/3T3 FGFR3 WT-TACC3 CTG (IC50); other: 72-hr incubation, CellTiter Glo; fused on or other part: C-terminal coiled-coil part of TACC3 (part of the key, as a fusion known from patients); Q9Y6A5 (Transforming acidic coiled-coil-containing protein 3)
Briefly: NIH/3T3 FGFR3 WT-TACC3 cell proliferation assay (CTG). Format: cell-based. Conditions: 72-hr incubation, CellTiter Glo; read-out: NIH/3T3 FGFR3 WT-TACC3 CTG (IC50). On the procedure:
NIH/3T3 FGFR3 WT-TACC3 Cell Proliferation Assay
as §2, with “WT-TACC3” for “V555M-TACC3”

T4 sequence (P22607 whole entry, change not shown, the tested form may be a part): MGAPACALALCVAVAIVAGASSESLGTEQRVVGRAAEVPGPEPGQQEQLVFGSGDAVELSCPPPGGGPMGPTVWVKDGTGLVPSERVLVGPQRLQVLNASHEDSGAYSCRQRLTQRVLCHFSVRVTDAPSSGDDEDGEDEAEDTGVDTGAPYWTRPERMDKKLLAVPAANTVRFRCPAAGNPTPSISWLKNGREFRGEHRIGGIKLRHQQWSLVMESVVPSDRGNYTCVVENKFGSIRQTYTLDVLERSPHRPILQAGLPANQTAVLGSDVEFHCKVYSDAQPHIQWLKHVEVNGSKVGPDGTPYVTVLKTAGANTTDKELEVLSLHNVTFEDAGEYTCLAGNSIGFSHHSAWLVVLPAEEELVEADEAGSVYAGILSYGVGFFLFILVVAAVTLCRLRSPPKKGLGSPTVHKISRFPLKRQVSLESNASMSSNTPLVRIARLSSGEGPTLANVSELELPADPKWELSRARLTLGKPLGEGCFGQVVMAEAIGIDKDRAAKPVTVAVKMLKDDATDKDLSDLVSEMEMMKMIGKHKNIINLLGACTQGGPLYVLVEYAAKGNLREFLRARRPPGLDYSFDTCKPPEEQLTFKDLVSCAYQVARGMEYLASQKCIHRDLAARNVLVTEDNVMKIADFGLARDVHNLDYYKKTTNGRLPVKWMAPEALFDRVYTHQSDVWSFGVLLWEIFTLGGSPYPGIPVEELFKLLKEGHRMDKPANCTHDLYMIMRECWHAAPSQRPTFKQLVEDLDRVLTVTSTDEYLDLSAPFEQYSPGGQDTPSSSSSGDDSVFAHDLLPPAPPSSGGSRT
T2 sequence (P22607 397-806 limits assumed): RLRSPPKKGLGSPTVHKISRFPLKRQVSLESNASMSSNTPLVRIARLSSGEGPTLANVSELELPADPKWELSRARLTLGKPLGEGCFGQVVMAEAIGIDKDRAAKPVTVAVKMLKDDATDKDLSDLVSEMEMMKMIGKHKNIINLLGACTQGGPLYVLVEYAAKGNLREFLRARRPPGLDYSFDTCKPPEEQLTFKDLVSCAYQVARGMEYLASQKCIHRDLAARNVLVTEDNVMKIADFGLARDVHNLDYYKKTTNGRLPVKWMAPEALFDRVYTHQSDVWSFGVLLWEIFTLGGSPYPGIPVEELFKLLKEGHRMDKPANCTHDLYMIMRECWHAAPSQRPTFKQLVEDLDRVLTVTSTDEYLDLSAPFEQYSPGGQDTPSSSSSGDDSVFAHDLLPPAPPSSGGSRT
T3 sequence (P22607 397-806 V555M limits assumed): as the sequence (P22607 397-806 limits assumed) above, with V159M counted along it
T1 sequence (P22607 whole entry V555M, the tested form may be a part): as the sequence (P22607 whole entry, change not shown, the tested form may be a part) above, with V555M counted along it

For the molecule `COc1ccc2nc(-c3c(N[C@@H](C)c4ncccn4)c4nn(C)cc4[nH]c3=O)[nH]c2c1` (single isomer, unassigned) [Compound 1, (S*)-6-(6-Methoxy-1H-benzo[d]imidazol-2-yl)-2-methyl-7-((1-(pyrimidin-2-yl)ethyl)-amino)-2H-pyrazolo[4,3-b]pyridin-5 (4H)-one], the IC50 in experiment [1] came to 987 nM; in experiment [2], 3.2 nM; in experiment [3], 3.05 nM.

`CCC(Nc1c(-c2nc3ccc(OCCOC)cc3[nH]2)c(=O)[nH]c2cn(C)nc12)c1ncccn1` (single isomer, unassigned) [Compound 48, (S*)-6-(6-(2-methoxyethoxy)-1H-benzo[d]imidazol-2-yl)-2-methyl-7-((1-(pyrimidin-2-yl)-propyl)amino)-2H-pyrazolo[4,3-b]pyridin-5 (4H)-one] had an IC50 in experiment [1] of 396 nM. Moreover, the GI50 in experiment [4] turned out to be 18.5 nM.

Regarding `CCOc1cc2[nH]c(-c3c(N[C@@H](C)c4ncccn4)c4nn(C)cc4[nH]c3=O)nc2cc1OC` [Compound 7, (S)-6-(6-ethoxy-5-methoxy-1H-benzo[d]imidazol-2-yl)-2-methyl-7-((1-(pyrimidin-2-yl)ethyl)amino)-2,4-dihydro-5H-pyrazolo[4,3-b]pyridin-5-one], the IC50 in experiment [5] was 0.327 nM; in experiment [6], 0.183 nM; in experiment [1] it was 713 nM; in experiment [2], 3.64 nM; in experiment [3], 2.79 nM.

For `C[C@H](Nc1c(-c2nc3ccc(F)cc3[nH]2)c(=O)[nH]c2cn(C)nc12)c1ncccn1` [Compound 28, (S)-6-(6-Fluoro-1H-benzo[d]imidazol-2-yl)-2-methyl-7-((1-(pyrimidin-2-yl)ethyl)amino)-2H-pyrazolo[4,3-b]pyridin-5 (4H)-one], the figures for the IC50 in experiment [5], in experiment [6] and in experiment [1] were 2.15 nM, 0.595 nM and 2030 nM, respectively. Also, in experiment [7], the GI50 was 23.3 nM.

On to `CCn1cc2[nH]c(=O)c(-c3nc4c(OC)cc(OC)cc4[nH]3)c(N[C@@H](C)c3ncccn3)c2n1` [Compound 31, (S)-6-(4,6-dimethoxy-1H-benzo[d]imidazol-2-yl)-2-ethyl-7-((1-(pyrimidin-2-yl)ethyl)-amino)-2H-pyrazolo[4,3-b]pyridin-5 (4H)-one], for which the IC50 in experiment [5] came to 6.21 nM; in experiment [6], 1.78 nM; in experiment [1] it was 1940 nM. Also, the GI50 in experiment [7] was found to be 34.4 nM.

On to `CCn1cc2[nH]c(=O)c(-c3nc4cc(OC)c(OCCOC)cc4[nH]3)c(N[C@@H](C)c3ncccn3)c2n1` [Compound 38, (S)-2-ethyl-6-(5-methoxy-6-(2-methoxyethoxy)-1H-benzo[d]imidazol-2-yl)-7-((1-(pyrimidin-2-yl)ethyl)amino)-2H-pyrazolo[4,3-b]pyridin-5 (4H)-one], for which the results for the IC50 in experiment [5], in experiment [6] and in experiment [1] were 0.98 nM, 0.568 nM and 532 nM, respectively. Further, the GI50 in experiment [7] came to 18.4 nM.

For `CCn1cc2[nH]c(=O)c(-c3nc4cc(OC)c(OC)cc4[nH]3)c(N[C@@H](C)c3ccccn3)c2n1` [Compound 51, (S)-6-(5,6-dimethoxy-1H-benzo[d]imidazol-2-yl)-2-ethyl-7-((1-(pyridin-2-yl)ethyl)-amino)-2,4-dihydro-5H-pyrazolo[4,3-b]pyridin-5-one], the figures for the IC50 in experiment [5], in experiment [6] and in experiment [1] were 4.43 nM, 0.613 nM and 1130 nM, respectively. Besides, the GI50 in experiment [7] was found to be 30.2 nM.

On to `CCOc1cc2nc(-c3c(N[C@@H](C)c4ncccn4)c4nn(CC)cc4[nH]c3=O)[nH]c2cc1OCC` [Compound 52, (S)-6-(5,6-diethoxy-1H-benzo[d]imidazol-2-yl)-2-ethyl-7-((1-(pyrimidin-2-yl)ethyl)-amino)-2H-pyrazolo[4,3-b]pyridin-5 (4H)-one], for which the IC50 turned out to be 0.853 nM in experiment [5]; 0.281 nM in experiment [6]; 653 nM in experiment [1]; 5.66 nM in experiment [2]; 6.67 nM in experiment [3].

Consider `COc1cc2[nH]c(-c3c(N[C@@H](C)c4ncccn4)c4nn(C)cc4[nH]c3=O)nc2c(F)c1OC` [Compound 55, (S)-6-(4-fluoro-5,6-dimethoxy-1H-benzo[d]imidazol-2-yl)-2-methyl-7-((1-(pyrimidin-2-yl)ethyl)amino)-2H-pyrazolo[4,3-b]pyridin-5 (4H)-one], for which the IC50 in experiment [5] was 0.957 nM; in experiment [6] it was 0.392 nM; in experiment [1], 2280 nM; in experiment [2], 5.5 nM; in experiment [3], 5.19 nM. In experiment [7], the GI50 stood at 17.4 nM.

On to `COc1cc2nc(-c3c(N[C@@H](C)c4ccccn4)c4nn(C)cc4[nH]c3=O)[nH]c2cc1OC` [Compound 56, (S)-6-(5,6-dimethoxy-1H-benzo[d]imidazol-2-yl)-2-methyl-7-((1-(pyridin-2-yl)ethyl)-amino)-2H-pyrazolo[4,3-b]pyridin-5 (4H)-one], for which the IC50 in experiment [5] was found to be 1.56 nM; in experiment [6] it was 0.296 nM; in experiment [1] it was 857 nM; in experiment [2] it was 7.92 nM; in experiment [3] it was 5.16 nM.

These data come from patent publication US11384099B2, “Pyrazolopyridinone compounds” (Janssen Pharmaceutica NV, priority 2017, dated 2022).
